From the supplement of paper PMC10307832

What was measured:
Test in all cases: relative viability (nuclei count vs DMSO), 5 days (fraction); higher = more cells survive
[1] = compound: COC1=CC=C(C=C1)CN2C=CC3=C2C=C(C=C3)C(=O)NO + COc1cc2c(Oc3ccc(NC(=O)C4(C(=O)Nc5ccc(F)cc5)CC4)cc3F)ccnc2cc1OCCCN1CCOCC1 [Foretinib] (partner 0.25 µM)
Outline: (§1)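 Lung cancer cell lines were seeded in 1536-well plates and dosed by pin tool the next day, with either a single drug or a fixed anchor-drug dose combined with five library-drug doses (not always all listed) spaced in √10 steps. Five days later, one step fixed the cells and stained their nuclei (final 0.05% Triton X-100, 1% formaldehyde, 1 ug/ml Hoechst), and nuclei were counted on 4× images. Relative viability is the nuclei count in treated wells divided by the count in vehicle wells, and each value is the median of duplicate plates.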

[2] = compound: COC1=CC=C(C=C1)CN2C=CC3=C2C=C(C=C3)C(=O)NO + O=C(CCCCCCC(=O)Nc1ccccc1)NO [Vorinostat] (partner 1 µM)
Outline: as §1

Veliparib + Trametinib = compound: C[C@]1(c2nc3c(C(N)=O)cccc3[nH]2)CCCN1 [Veliparib] + CC(=O)Nc1cccc(-n2c(=O)n(C3CC3)c(=O)c3c(Nc4ccc(I)cc4F)n(C)c(=O)c(C)c32)c1 [Trametinib] (partner 0.02 µM)
Outline: as §1

Veliparib + Navitoclax = compound: C[C@]1(c2nc3c(C(N)=O)cccc3[nH]2)CCCN1 [Veliparib] + CC1(C)CCC(c2ccc(Cl)cc2)=C(CN2CCN(c3ccc(C(=O)NS(=O)(=O)c4ccc(N[C@H](CCN5CCOCC5)CSc5ccccc5)c(S(=O)(=O)C(F)(F)F)c4)cc3)CC2)C1 [Navitoclax] (partner 0.5 µM)
Outline: as §1

Cell Line	relative viability ([1]; first compound 0.08 µM)	relative viability ([1]; first compound 0.253 µM)	relative viability ([1]; first compound 0.8 µM)	relative viability ([1]; first compound 2.53 µM)	relative viability ([1]; first compound 8 µM)	relative viability ([2]; first compound 0.08 µM)	relative viability ([2]; first compound 0.253 µM)	relative viability ([2]; first compound 0.8 µM)	relative viability ([2]; first compound 2.53 µM)	relative viability ([2]; first compound 8 µM)	relative viability (Veliparib + Trametinib; first compound 0.02 µM)	relative viability (Veliparib + Trametinib; first compound 0.06325 µM)	relative viability (Veliparib + Trametinib; first compound 0.2 µM)	relative viability (Veliparib + Trametinib; first compound 0.6325 µM)	relative viability (Veliparib + Trametinib; first compound 2 µM)	relative viability (Veliparib + Navitoclax; first compound 0.02 µM)	relative viability (Veliparib + Navitoclax; first compound 0.06325 µM)	relative viability (Veliparib + Navitoclax; first compound 0.2 µM)	relative viability (Veliparib + Navitoclax; first compound 0.6325 µM)	relative viability (Veliparib + Navitoclax; first compound 2 µM)
201T	1.06	1.15	1.24	1.06	0.999	0.813	0.952	0.967	0.986	0.868	0.762	0.719	0.699	0.746	0.738	1.21	1.21	1.17	1.19	1.15
A549	0.802	0.965	0.948	0.952	0.987	–	–	–	–	–	–	–	–	–	–	1.25	1.18	1.17	1.16	1.13
A-427	–	1.03	1.16	1.12	1	0.694	–	0.826	0.847	0.794	0.792	0.727	0.801	0.722	0.875	1.05	0.795	0.93	0.938	0.893
ABC-1	–	1.14	1.02	0.935	1.14	–	0.517	1.13	0.973	1.02	–	–	–	–	–	–	–	–	–	–
BEN	0.604	0.459	0.454	0.641	0.479	0.566	0.566	0.591	0.543	0.548	1.11	1.11	1.06	1.01	1.08	0.0726	0.0807	0.0698	0.0678	0.0746
CAL-12T	0.918	1	1.2	1.06	1	0.562	0.855	0.821	0.719	0.787	0.42	0.378	0.328	0.256	0.374	1.38	1.03	1.3	1.2	1.32
COR-L23	0.741	0.992	0.985	0.99	0.945	0.273	0.456	0.455	0.518	0.502	0.47	0.609	0.501	0.539	0.613	1.15	0.957	0.899	0.86	0.999
COR-L 105	0.681	1.43	0.853	1.08	0.212	0.489	0.802	0.828	0.815	0.63	0.448	0.463	0.475	0.432	0.468	0.688	0.817	0.712	0.615	0.928
Calu-6	0.419	0.853	0.851	0.889	0.725	–	–	–	–	–	–	–	–	–	–	0.946	0.871	0.914	0.824	0.867
ChaGo-K-1	–	0.932	0.898	0.802	0.869	–	0.837	0.772	0.706	0.558	0.673	0.842	0.923	0.857	0.905	–	0.833	1.08	1.06	0.85
EBC-1	0.0855	0.0996	0.0919	0.102	0.113	–	–	–	–	–	–	–	–	–	–	0.508	0.405	0.487	0.334	0.407
EKVX	0.542	0.555	0.801	0.762	0.849	0.646	0.843	0.803	0.897	0.672	–	0.317	0.329	0.245	0.331	0.814	0.974	0.884	0.891	0.819
EMC-BAC-2	0.788	1.03	0.98	0.977	0.922	0.257	–	0.568	0.429	0.36	1.01	–	0.922	0.752	0.913	1.2	1.18	1.15	1.14	1.08
EPLC-272H	0.293	–	0.653	0.704	0.662	–	0.619	0.55	0.404	0.3	–	0.303	0.297	0.268	0.319	–	1.08	0.999	1.22	1.16
H3255	0.92	0.702	0.821	0.89	0.398	0.34	0.739	0.842	0.849	0.731	0.614	0.572	0.672	0.624	0.632	0.479	0.445	0.537	0.477	0.518
HARA	–	0.868	0.958	0.826	0.55	–	0.6	0.484	0.677	0.59	0.745	–	0.949	0.796	0.798	1.17	1.09	1.1	1.08	1.15
HCC-15	0.642	1.02	1	1.03	1.01	0.544	0.951	0.828	0.926	0.754	0.422	0.374	0.429	0.357	0.4	0.723	0.702	0.719	0.721	0.65
HCC-44	–	–	–	–	–	1.09	1.06	1.18	1.14	1.12	1.07	0.938	1.14	1.04	1.06	1.05	0.846	1.02	0.798	0.967
HCC-78	0.529	0.629	0.594	0.585	0.6	0.403	0.484	0.431	0.523	0.411	0.84	0.701	0.869	0.617	0.669	0.892	0.77	0.881	0.646	0.648
